Data on one molecule can be found in patent US20210113529A1, “MEDICINE FOR PREVENTING OR TREATING OPHTHALMIC DISEASE ASSOCIATED WITH ENHANCED INTRAOCULAR NEOVASCULARIZATION AND/OR INTRAOCULAR VASCULAR PERMEABILITY” (KYOTO UNIVERSITY, priority 2018, published 2021).

Structures are written as SMILES. pEC50: −log10 of the molar value.

For one test, the target named is S1P2 receptor (Homo sapiens, UniProt O95136). The note with it: GTP[γ35S] binding assay; report PLoS One, 2014; cited from earlier work.
Sequence of S1P2 receptor (O95136 whole entry): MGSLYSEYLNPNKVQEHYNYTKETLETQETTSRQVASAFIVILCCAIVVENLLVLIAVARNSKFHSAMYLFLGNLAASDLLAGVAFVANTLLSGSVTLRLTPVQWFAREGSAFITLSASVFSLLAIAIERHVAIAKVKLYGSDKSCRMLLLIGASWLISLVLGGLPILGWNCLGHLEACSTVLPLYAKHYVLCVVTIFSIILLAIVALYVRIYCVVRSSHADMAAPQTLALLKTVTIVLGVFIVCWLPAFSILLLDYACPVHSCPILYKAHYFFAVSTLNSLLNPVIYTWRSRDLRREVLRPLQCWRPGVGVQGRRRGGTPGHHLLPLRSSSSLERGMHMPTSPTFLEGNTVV
In a further test the target is S1P5 receptor (Homo sapiens, UniProt Q9H228). The note with it: GTP[γ35S] binding assay; report PLoS One, 2014, 9(10), e110819; read-out: EC50 for S1P5 receptor agonist activity; cited from earlier work.
Sequence of S1P5 receptor (Q9H228 whole entry, the tested form may be a part): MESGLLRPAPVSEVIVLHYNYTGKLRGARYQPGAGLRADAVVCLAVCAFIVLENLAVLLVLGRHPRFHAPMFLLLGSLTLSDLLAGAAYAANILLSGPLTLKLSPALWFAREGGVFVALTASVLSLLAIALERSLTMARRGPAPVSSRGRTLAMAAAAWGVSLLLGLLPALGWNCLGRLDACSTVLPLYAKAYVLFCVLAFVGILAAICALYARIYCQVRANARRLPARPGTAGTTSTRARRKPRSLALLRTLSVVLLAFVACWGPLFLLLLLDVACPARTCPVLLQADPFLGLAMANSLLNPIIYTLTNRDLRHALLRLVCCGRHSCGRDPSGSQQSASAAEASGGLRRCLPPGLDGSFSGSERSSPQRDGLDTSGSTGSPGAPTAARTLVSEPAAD
In test [1] the test system is retinal vein occlusion (RVO) model. The test is described as follows: RVO model: retinal non perfusion area. Format: in vivo, mice. Here is the method:
(§1) Eight-week-old mice (Japan SLC, Inc., ddy strain) were anesthetized by intramuscularly administering 10 mL/kg of a mixed anesthetic solution diluted so as to contain ketamine (120 mg/kg) and xylazine (6 mg/kg). After that, 0.15 mL of rose bengal (20 mg/kg; WAKO) was administered into the tail vein, and a vein three head systems away from the optic nerve head of the right eye of the mice was irradiated with a laser to occlude a retinal vein. Thus, a retinal non perfusion area was generated. For the occlusion, the laser irradiation was performed 10 times to 15 times per vein. For the laser irradiation, an attachment of a fundus photography apparatus Micron 4 (Phoenix Research Laboratories, Inc., Pleasanton, Calif., USA) was used (wavelength: 532 nm, spot size: 50 μm, irradiation time: 5,000 ms, laser output: 50 mW). Three veins were occluded per eye, and it was confirmed with photographs of the fundus that the laser-irradiated veins had been completely occluded. […]
The retinal flat mount specimen was photographed under a fluorescence microscope (BX50, Olympus) using a high-sensitivity cooling CCD camera (DP30BW, Olympus) through imaging software Metamorph (Universal Imaging Corp., Downingtown, Pa., USA) on an XY motor-operated stage (Sigma Koki Co., Ltd., Tokyo, Japan). […] The ratio of the retinal non perfusion area was quantified using analysis software in Metamorph. […]

For another test, the target named is T1, S1P4 receptor (Homo sapiens, UniProt O95977).
T1 sequence (O95977 1-384): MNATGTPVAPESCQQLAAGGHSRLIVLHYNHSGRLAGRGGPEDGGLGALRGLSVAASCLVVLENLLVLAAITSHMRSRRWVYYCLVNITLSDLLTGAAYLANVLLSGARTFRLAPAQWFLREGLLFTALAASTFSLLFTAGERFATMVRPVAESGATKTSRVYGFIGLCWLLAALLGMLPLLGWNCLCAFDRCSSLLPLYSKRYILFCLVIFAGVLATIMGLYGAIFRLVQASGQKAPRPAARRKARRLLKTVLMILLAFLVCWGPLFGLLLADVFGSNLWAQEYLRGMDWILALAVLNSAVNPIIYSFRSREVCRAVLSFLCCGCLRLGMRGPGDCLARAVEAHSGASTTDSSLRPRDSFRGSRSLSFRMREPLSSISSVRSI
The note with it: GTP[γ35S] binding assay; report PLoS One, 2014; cited from earlier work.

Test [2] deals with retinal vein occlusion (RVO) model. In words: Retinal vein occlusion (RVO) model, oral: thickness of retinal inner nuclear layer (INL). The class given is in vivo, mice. The note with it: dose of at least 0.03 mg/kg or more, 12 hours before and immediately after laser irradiation, 24 hours after irradiation. The method, then:
as §1, with “vein.” for “vein. Thus, a retinal non perfusion area was generated.”
After 24 hours from the laser irradiation, the mice were euthanized by cervical dislocation, the eyeball was extirpated, and histological evaluation was performed by a hematoxylin-eosin staining method. In addition, the thickness of the retinal inner nuclear layer (INL) was measured at intervals of 240 μm on both sides, i.e., ear side and nose side from the center of the optic nerve head. […]

`C[C@H](Oc1ccc(-c2nc(-c3ccc4[nH]cnc4c3)no2)cc1C(F)(F)F)C(F)(F)F.Cl` [Compound 1, 5-{5-[3-(trifluoromethyl)-4-{[(2S)-1,1,1-trifluoropropan-2-yl]oxy}phenyl]-1,2,4-oxadiazol-3-yl}-1H-benzimidazole monohydrochloride]: the “EC50 for S1P2 receptor agonist activity as compared to that for the S1P1 receptor” value on S1P2 receptor is given as no less than 100 fold. In addition, the pEC50 at S1P5 receptor was 8.12. Moreover, the “enlargement of the non perfusion area” value in test [1] (early administration: 0.3 mg/kg orally 12 hours before and immediately after laser irradiation) is given as “significantly reduced the enlargement of the non perfusion area”; in test [1] (late administration: 0.3 mg/kg orally twice at an interval of 12 hours on the 7th day after laser irradiation) it was “significantly reduced the enlargement of the non perfusion area”. Further, the “EC50 for S1P4 receptor agonist activity as compared to that for the S1P1 receptor” value at S1P4 receptor is no less than 100 fold. Besides, the “thickening of the INL (retinal edema)” value in test [2] is “ameliorated the thickening of the INL”.
